Source: patent US8809347B2, “Bicyclic aryl and bicyclic heteroaryl substituted triazoles useful as AXL inhibitors” (Rigel Pharmaceuticals, Inc., priority 2006, dated 2014)

Each molecule was assayed against T1, Axl (Homo sapiens, UniProt P30530) (assay: Phospho-Akt in-cell Western assay (inhibition of Axl activity)). Conditions: Hela cells; 1 hr pre-treatment; stimulation by Axl-antibody cross-linking; phospho-Akt chemiluminescence normalized to relative cell number.
T1 construct: Cells: Hela cells; endogenous in cells; host or cells: HeLa cells
T1 sequence (P30530 26-894): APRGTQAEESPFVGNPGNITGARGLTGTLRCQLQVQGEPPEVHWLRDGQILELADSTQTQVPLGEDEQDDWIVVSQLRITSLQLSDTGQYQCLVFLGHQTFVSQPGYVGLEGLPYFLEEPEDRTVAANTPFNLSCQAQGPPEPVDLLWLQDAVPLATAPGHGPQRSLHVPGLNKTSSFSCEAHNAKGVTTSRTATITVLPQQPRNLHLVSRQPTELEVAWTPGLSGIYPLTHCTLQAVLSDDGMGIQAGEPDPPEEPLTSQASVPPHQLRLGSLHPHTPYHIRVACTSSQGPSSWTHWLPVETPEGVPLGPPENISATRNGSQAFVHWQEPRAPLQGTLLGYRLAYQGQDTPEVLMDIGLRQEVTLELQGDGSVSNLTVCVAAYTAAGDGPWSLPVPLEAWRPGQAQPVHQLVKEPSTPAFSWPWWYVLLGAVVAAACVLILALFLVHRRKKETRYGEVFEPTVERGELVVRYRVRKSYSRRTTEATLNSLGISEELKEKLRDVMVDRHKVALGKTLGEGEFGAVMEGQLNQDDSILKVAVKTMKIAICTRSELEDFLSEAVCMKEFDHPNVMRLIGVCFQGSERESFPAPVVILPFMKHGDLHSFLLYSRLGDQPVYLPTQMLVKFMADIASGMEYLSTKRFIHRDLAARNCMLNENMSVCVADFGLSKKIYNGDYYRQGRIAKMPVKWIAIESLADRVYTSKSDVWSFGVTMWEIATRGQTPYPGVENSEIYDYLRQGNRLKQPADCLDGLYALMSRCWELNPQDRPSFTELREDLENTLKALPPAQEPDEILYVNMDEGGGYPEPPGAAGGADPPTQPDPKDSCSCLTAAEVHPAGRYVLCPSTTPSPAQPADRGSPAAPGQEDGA
Format: cell-based
Experimental: The compounds of the invention were tested in the following assay for their ability to inhibit Axl activity.
Phospho-Akt in-Cell Western Assay
• Cell culture plate: 96 well assay plate (Corning 3610), white, clear bottom, tissue-culture treated. • Cells: Hela cells. • Starvation medium: For Axl stimulation: 0.5% FCS (fetal calf serum) in DMEM, plus Axl/Fc (extracellular domain of AXL fused to immunoglobulin Fc region) (R&D, 154-AL) 500 ng/mL. • For EGF (epidermal growth factor) stimulation: 0.5% FCS in DMEM (Dulbecco's modified Eagles medium). • Poly-L-Lysine 0.01% solution (the working solution): […], dilute In PBS (phosphate buffered saline). • Axl antibody cross-linking: • 1st: Mouse anti-Axl (R&D, MAB154). • 2nd: Biotin-SP-conjugated AffiniPure goat anti-mouse IgG (H+ L) (Jackson ImmunoResearch #115-065-003). • Fixing buffer: 4% formaldehyde in PBS. • Wash buffer: 0.1% TritonX-100 in PBS. • Quenching buffer: 3% H2O2, 0.1% Azide in wash buffer, Azide and hydrogen peroxide (H2O2) are added fresh. • Blocking buffer: 5% BSA in TBST (tris buffered saline plus 0.1% Tween 20). • Primary antibody: Rabbit anti-human Phospho-Akt antibody (Cell Signaling 9271): 1×250 diluted in blocking buffer. • Secondary antibody: HRP (horse radish peroxidase)-conjugated Goat anti-Rabbit secondary, stock solution: Jackson ImmunoResearch (Goat anti-Rabbit HRP, #111-035-144) 1:1 diluted in glycerol, store at −20° C. The working solution: 1×2000 dilution of stock in blocking buffer. • Chemiluminescent working solution (Pierce, 37030): SuperSignal ELISA (enzyme linked immunosorbant assay) Pico Chemiluminescent substrate. • Crystal Violet solution: Stock: 2.5% Crystal violet in methanol, filtered and kept at ambient temperature. The working solution: dilute the stock 1:20 with PBS immediately before use. • 10% SDS: working solution: 5% SDS (sodium dodecylsulfate), diluted in PBS Methods: Day 1:
A 96 well TC (tissue culture treated) plate was coated with 10 μg/mL poly-L-Lysine at 37° C. for 30 min, washed twice with PBS, and air-dried for 5 minutes before cells were added. Hela cells were seeded at 10,000 cells/well and the cells were starved in 100 μL starvation medium containing Axl/Fc for 24 hrs.
The cells were pre-treated with test compounds by adding 100 μL of 2× test compound to the starvation medium on the cells. The cells were incubated at 37° C. for 1 hr before stimulation.
The cells were stimulated by Axl-antibody cross-linking as follows: A 5× 1st/2nd Axl antibody mixture was made (37.5 μg/mL 1st/100 μg/mL 2nd) in starvation medium and nutated at 4° C. with thorough mixing for 1-2 hours for clustering. The resulting mix was warmed to 37° C. 50 μL of 5× Axl 1st/2nd of antibody cluster was added to the cells and the cells were incubated at 37° C. for 5 min.
After 5 minutes stimulation, the plate was flicked to remove medium and the plate was tapped onto paper towels. Formaldehyde (4.0% in PBS, 100 μL) was added to fix the cells and the cells were incubated at ambient temperature for 20 min without shaking.
The cells were washed with a plate washer buffer to remove the formaldehyde solution. The plate was flicked to removed excess wash buffer and tapped onto paper towels. Quenching buffer (100 μL) was added to each well and the cells were incubated at ambient temperature for 20 minutes without shaking.
The cells were washed with a plate washer buffer to remove the quenching buffer. Blocking buffer (100 μL) was added and the cells were incubated at ambient temperature for at least an hour with gentle shaking.
The cells were washed with a plate washer buffer and diluted primary antibody (50 μL) was added to each well (blocking buffer was added to the negative control wells instead). The plates were incubated overnight at 4° C. with gentle shaking.
The wash buffer was removed, diluted secondary antibody (100 μL) was added, and the cells were incubated at ambient temperature for 1 hour with gentle shaking. […]
`Nc1nc(Nc2ccc(OCCN3CCCC3)cc2)nn1-c1ncnc2c1CCCCCC2` [Compound 20, 1-(5,6,7,8,9,10-hexahydrocycloocta[d]pyrimidin-4-yl)-N^3-(4-(2-(pyrrolidin-1-yl)ethoxy)phenyl)-1H-1,2,4-triazole-3,5-diamine] was tested, and the IC50 was less than 1000 nM.
Work on `CN1CCN(c2ccc(Nc3nc(N)n(-c4ncnc5c4CCCCCC5)n3)cc2)CC1` [Compound 21, 1-(5,6,7,8,9,10-hexahydrocycloocta[d]pyrimidin-4-yl)-N^3-(4-(4-methylpiperazin-1-yl)phenyl)-1H-1,2,4-triazole-3,5-diamine] yielded an IC50 of less than 1000 nM.
For `Nc1nc(Nc2ccc(OCCN3CCCC3)cc2)nn1-c1ccc2c(n1)CCCCCC2` [Compound 22, 1-(5,6,7,8,9,10-hexahydrocycloocta[b]pyridin-2-yl)-N^3-(4-(2-(pyrrolidin-1-yl)ethoxy)phenyl)-1H-1,2,4-triazole-3,5-diamine], the IC50 was less than 1000 nM.
`CN1CCN(c2ccc(Nc3nc(N)n(-c4ccc5c(n4)CCCCCC5)n3)cc2)CC1` [Compound 23, 1-(5,6,7,8,9,10-hexahydrocycloocta[b]pyridin-2-yl)-N^3-(4-(4-methylpiperazin-1-yl)phenyl)-1H-1,2,4-triazole-3,5-diamine] gave an IC50 of less than 1000 nM.
`Nc1nc(Nc2ccc(N3CCN(C4CC5CCC4C5)CC3)cc2)nn1-c1ncnc2c1CCCCCC2` (stereo not drawn) [Compound 24, N^3-(4-(4-(bicyclo[2.2.1]heptan-2-yl)piperazin-1-yl)phenyl)-1-(5,6,7,8,9,10-hexahydrocycloocta[d]pyrimidin-4-yl)-1H-1,2,4-triazole-3,5-diamine] gave an IC50 of less than 1000 nM.
In the case of `Nc1nc(Nc2ccc(N3CCC(N4CCOCC4)CC3)c(F)c2)nn1-c1ncc2c(n1)CCCCCC2` [Compound 25, N^3-(3-fluoro-4-(4-morpholinopiperidin-1-yl)phenyl)-1-(5,6,7,8,9,10-hexahydrocycloocta[d]pyrimidin-2-yl)-1H-1,2,4-triazole-3,5-diamine], the IC50 is reported as 1000 to 10000 nM.
`Cc1csc2c(-n3nc(Nc4ccc5c(c4)CCCN(C4CCCC4)CC5)nc3N)nc(Cl)nc12` [Compound 26, 1-(2-chloro-7-methylthieno[3,2-d]pyrimidin-4-yl)-N^3-(3-cyclopentyl-1,2,3,4,5,6-hexahydrobenzo[d]azocin-8-yl)-1H-1,2,4-triazole-3,5-diamine] was tested, and the IC50 was less than 1000 nM.
`COc1cc2ncnc(-n3nc(Nc4ccc5c(c4)CCCN(C4CCCC4)CC5)nc3N)c2cc1OC` [Compound 27, N^3-(3-cyclopentyl-1,2,3,4,5,6-hexahydro-benzo[d]azocin-8-yl)-1-(6,7-dimethoxy-quinazolin-4-yl)-1H-[1,2,4]triazole-3,5-diamine] gave an IC50 of less than 1000 nM.
`Cc1csc2c(-n3nc(Nc4ccc5c(c4)OCCCCO5)nc3N)nc(Cl)nc12` [Compound 28, 1-(2-chloro-7-methylthieno[3,2-d]pyrimidin-4-yl)-N^3-(2,3,4,5-tetrahydrobenzo[b][1,4]dioxocin-8-yl)-1H-1,2,4-triazole-3,5-diamine] was tested, and the IC50 was less than 1000 nM.
`Cc1csc2c(-n3nc(Nc4ccc5c(c4)CC(N4CCCC4)CCCC5)nc3N)nc(Cl)nc12` (stereo not drawn) [Compound 29, 1-(2-chloro-7-methylthieno[3,2-d]pyrimidin-4-yl)-N^3-(9-(pyrrolidin-1-yl)-5,6,7,8,9,10-hexahydrobenzo[8]annulen-2-yl)-1H-1,2,4-triazole-3,5-diamine] showed an IC50 of less than 1000 nM.
For `Nc1nc(Nc2ccc3c(c2)CCN(C2CCCC2)CCC3)nn1-c1ccc(C(F)(F)F)cn1` [Compound 30, N^3-(3-cyclopentyl-1,2,3,4,5,6-hexahydrobenzo[d]azocin-9-yl)-1-(5-(trifluoromethyl)pyridin-2-yl)-1H-1,2,4-triazole-3,5-diamine], the IC50 was less than 1000 nM.
For `Nc1nc(Nc2ccc3c(c2)CCCN(C2CCCC2)CC3)nn1-c1ncnc2ccc(F)cc12` [Compound 31, N^3-(3-cyclopentyl-1,2,3,4,5,6-hexahydrobenzo[d]azocin-8-yl)-1-(6-fluoroquinazolin-4-yl)-1H-1,2,4-triazole-3,5-diamine], the IC50 was less than 1000 nM.
